Experiment [1] deals with T1, mutant integrin CD11bE320A/CD18 (Homo sapiens, UniProt P11215, E336A).
T1 construct: expressed in transfected cells; host or cells: K562 (ATCC)
The experiment is described as follows: HTS cell adhesion assay, K562 E320A cells on immobilized fibrinogen. In kind it is cell-based. The settings on record: five point dose-response. In outline: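 K562 cells expressing the indicated CD11b/CD18 integrin were added to wells coated with 15 μg/mL fibrinogen and incubated with compound for 30 min at 37 °C in Ca2+/Mg2+ buffer. Non-adherent cells were removed by plate inversion. Adherent cells were fixed, stained with DAPI and counted by high-content imaging, scaled from 0% (1 mM Ca2+/Mg2+) to 100% (Mn2+ activation).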

For another experiment, the target named is T2, integrin CD11c/CD18 (Homo sapiens, UniProt P20702).
T2 construct: expressed in transfected cells; host or cells: K562 (ATCC)
T2 sequence (P20702 with tags, fused parts or gaps): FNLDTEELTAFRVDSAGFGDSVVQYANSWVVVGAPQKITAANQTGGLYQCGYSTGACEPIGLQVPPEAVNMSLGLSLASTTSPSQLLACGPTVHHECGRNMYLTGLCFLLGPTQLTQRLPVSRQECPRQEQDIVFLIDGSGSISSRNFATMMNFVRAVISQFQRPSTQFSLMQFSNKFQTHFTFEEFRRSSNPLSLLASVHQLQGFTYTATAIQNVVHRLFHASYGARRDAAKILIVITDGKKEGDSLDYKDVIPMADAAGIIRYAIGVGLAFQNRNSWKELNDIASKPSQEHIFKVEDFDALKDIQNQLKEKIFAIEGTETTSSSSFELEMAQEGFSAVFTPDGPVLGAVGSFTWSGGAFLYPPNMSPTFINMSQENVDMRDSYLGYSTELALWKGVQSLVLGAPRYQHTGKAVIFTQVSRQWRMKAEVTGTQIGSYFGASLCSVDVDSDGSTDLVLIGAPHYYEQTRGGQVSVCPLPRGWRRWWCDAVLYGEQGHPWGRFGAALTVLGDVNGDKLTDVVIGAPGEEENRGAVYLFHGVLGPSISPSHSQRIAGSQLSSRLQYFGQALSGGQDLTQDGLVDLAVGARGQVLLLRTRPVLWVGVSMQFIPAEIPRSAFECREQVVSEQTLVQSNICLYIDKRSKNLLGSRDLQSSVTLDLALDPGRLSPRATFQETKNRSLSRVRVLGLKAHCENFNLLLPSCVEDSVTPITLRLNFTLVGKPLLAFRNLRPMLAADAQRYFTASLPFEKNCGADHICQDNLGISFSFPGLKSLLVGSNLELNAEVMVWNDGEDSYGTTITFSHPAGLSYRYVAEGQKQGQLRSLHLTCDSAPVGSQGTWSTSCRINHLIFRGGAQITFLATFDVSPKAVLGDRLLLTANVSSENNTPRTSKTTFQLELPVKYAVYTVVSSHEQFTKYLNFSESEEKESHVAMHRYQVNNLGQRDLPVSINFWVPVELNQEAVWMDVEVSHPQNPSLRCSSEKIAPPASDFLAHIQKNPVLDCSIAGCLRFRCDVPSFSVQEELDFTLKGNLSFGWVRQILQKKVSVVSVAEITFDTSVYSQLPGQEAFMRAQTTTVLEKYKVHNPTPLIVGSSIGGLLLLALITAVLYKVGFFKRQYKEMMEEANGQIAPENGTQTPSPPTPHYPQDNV
T2 sequence (P05107 23-769 partner): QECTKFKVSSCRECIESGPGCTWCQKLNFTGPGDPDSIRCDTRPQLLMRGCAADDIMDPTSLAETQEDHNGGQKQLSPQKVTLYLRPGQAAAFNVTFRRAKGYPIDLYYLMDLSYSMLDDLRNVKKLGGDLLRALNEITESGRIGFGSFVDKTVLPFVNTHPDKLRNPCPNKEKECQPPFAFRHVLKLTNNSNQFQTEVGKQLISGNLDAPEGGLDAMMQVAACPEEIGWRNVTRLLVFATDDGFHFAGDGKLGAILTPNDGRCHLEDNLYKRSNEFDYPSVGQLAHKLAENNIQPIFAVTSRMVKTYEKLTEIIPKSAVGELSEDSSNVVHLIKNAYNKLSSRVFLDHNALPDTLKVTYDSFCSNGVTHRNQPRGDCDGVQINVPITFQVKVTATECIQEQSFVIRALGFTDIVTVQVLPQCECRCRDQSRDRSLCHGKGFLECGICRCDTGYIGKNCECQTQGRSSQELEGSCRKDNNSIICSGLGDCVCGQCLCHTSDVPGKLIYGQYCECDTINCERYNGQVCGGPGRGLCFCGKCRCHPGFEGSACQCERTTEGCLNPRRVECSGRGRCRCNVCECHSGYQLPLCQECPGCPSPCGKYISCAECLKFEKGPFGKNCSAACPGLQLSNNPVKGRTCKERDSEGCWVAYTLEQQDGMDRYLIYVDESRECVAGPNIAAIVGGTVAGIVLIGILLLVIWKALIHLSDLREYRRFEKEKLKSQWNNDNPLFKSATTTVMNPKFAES
Kind of experiment: HTS cell adhesion assay, K562 CD11c/CD18 cells on immobilized fibrinogen. In kind it is cell-based. The settings on record: for EC50 CD11c/CD18: Table 3. The method, then:
K562 cells stably expressing CD11c/CD18 (K562 CD11c/CD18) were generated similarly. Mutant CD11bE320A has been described previously. K562 cells stably transfected with mutant integrin CD11bE320A/CD18 (K562 E320A) were generated according to literature protocols. All cell lines were maintained in Iscove's Modified Dulbecco's Medium (IMDM) supplemented with 10% heat-inactivated fetal bovine serum, 50 IU/mL penicillin and streptomycin and 0.5 mg/mL G418.
Cell adhesion assays with immobilized ligands were performed using the general protocol previously described and as illustrated in FIG. 1 [33]. Assays with all different K562 cell lines (K562, K562 CD11b/CD18, K562 CD11c/CD18 and K562 E320A) were performed in an identical fashion. Briefly, 384-well microplates (Corning 3700) were coated with 15 μg/mL fibrinogen (Fg) ligand in PBS^++ overnight at 4° C. At the same time, anti-CD18 (IB4) mAb was also coated. Subsequently, the coated wells were washed with 1% nonfat milk in TBS at room temperature for 1 hour. Next, the wells were washed 3 times with TBS, and the coated microplates were used in the HTS assays.
K562 CD11b/CD18, K562 CD11bE320A/CD18 and K562 CD11c/CD18 cells were washed with TBS, and cells were transferred to the Fg-coated wells of microplates in the assay buffer (Ca^2+ and Mg^2+ for physiological condition, Mn^2+ as the Positive control). A 1 μL aliquot of the compounds were transferred to each washed well with multichannel pipet from the 384-well plates.
The assay plates were incubated at 37° C. in the presence of small-molecule compounds for 30 min. To dislodge the non-adherent cell, the assay plates were gently inverted and kept in inverted position for 20 min at room temperature.
The cells were fixed with 37% formaldehyde in a small volume and the plates were kept inverted for 1 h. Upon the fixation, the solutions in the well were discarded. Next, the cells were fluorescently labeled with DAPI (0.5 μM final in TBS with 0.1% Triton X-100) and the quantitated with “Opera High Content Screening System” (Perkin Elmer).
Cell-adhesion under positive and negative control conditions was used to define the activity scale; signal corresponding to the number of non-small molecule treated cells adherent in activating buffer condition (in the presence of Mn^2+ ions as agonist, PC) was considered maximum (100% binding) and the signal corresponding to the number of non-small molecule treated cells adherent in basal buffer condition (in the presence of 1 mM each of Ca^2+ and Mg^2+, NC) was considered minimum (0% binding). […]
The compounds were diluted in DMSO by the final concentration 10 μM, 5 μM, 2.5 μM, 1.25 μM and 0.625 μM and stocked as sealed in 384-well plates at −80° C.

Setting [2] is: Table 3, adhesion to fibrinogen.
The mark [3] stands for this setting: K562 CD11c/CD18 cells, adhesion to fibrinogen, dose-response.
[4] abbreviates: Table 4, adhesion to fibrinogen.

Where two headings read alike, the source gives them in different places.

T1 sequence (P11215 17-1152 E336A): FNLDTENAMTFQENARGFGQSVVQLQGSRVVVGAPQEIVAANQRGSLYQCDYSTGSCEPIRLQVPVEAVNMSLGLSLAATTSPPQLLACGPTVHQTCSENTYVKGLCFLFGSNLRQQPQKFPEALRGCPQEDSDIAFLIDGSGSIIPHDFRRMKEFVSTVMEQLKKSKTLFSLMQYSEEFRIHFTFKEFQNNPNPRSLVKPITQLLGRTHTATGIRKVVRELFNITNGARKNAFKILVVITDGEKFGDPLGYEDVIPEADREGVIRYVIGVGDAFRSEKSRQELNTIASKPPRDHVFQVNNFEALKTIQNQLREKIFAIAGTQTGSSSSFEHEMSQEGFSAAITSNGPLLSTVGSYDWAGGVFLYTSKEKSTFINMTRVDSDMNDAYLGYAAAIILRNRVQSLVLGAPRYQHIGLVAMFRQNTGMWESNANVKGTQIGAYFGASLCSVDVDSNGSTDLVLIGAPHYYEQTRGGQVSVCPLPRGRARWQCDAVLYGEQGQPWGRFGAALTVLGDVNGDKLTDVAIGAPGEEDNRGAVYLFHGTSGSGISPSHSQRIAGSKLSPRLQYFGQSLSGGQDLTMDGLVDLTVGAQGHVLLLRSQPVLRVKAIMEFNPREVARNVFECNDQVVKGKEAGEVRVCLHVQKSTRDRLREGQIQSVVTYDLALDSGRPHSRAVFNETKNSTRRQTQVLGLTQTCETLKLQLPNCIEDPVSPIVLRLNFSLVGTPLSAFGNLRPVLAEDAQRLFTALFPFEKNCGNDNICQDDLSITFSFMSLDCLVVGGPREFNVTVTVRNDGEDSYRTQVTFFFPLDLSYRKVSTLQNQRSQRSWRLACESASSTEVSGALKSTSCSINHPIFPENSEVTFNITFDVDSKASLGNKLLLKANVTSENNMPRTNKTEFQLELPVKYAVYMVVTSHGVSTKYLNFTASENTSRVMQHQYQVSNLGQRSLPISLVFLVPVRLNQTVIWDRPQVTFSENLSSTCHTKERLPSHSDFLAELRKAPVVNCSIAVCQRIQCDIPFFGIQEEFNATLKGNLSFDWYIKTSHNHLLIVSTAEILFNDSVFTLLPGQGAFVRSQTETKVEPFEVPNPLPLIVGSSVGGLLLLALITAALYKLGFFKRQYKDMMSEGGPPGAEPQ
T1 sequence (P05107 23-769 partner): as the sequence (P05107 23-769 partner) above

`N#Cc1sc2nc(-c3ccccc3)cc(-c3ccco3)c2c1N` [Compound 629074]: the values for the EC50 (in experiment [1] (setting [2]); at integrin CD11c/CD18) were 5.16 µM and 2.36 µM, respectively.
The corresponding values for `CC1CCN(S(=O)(=O)c2ccc(NC(=O)Cn3nnc(-c4ccccc4)n3)cc2)CC1` [Compound 652267] are 6 µM and 5.01 µM.
On to `COc1ccc(-c2nnn(CC(=O)Nc3sc4c(c3C#N)CCCC4)n2)cc1` [Compound 652695], for which the EC50 in experiment [1] (setting [2]) came out at 4.86 µM; on integrin CD11c/CD18, 4.61 µM.
For `COC(=O)c1[nH]c2ccccc2c1NC(=O)CN1CCCc2ccccc21` [Compound 658682] the same measures were 1.6 µM and 0.621 µM.
Regarding `CCC(=O)Nc1c(C#N)c2nc3ccccc3nc2n1C1CCCCC1` [Compound 658936], the EC50 in experiment [1] (setting [2]) stood at 0.209 µM. The “EC50 CD11c/CD18” value on integrin CD11c/CD18 (setting [3]) is 1.669 (Reverse).
In the case of `COC(=O)c1[nH]c2ccc(C)cc2c1NC(=O)CN1CCCc2ccccc21` [Compound 658948], the results for the EC50 (in experiment [1] (setting [2]); at integrin CD11c/CD18) were 0.994 µM and 0.564 µM, respectively.
`CC(C)c1nc2sc3c(SCC(=O)NCc4ccco4)ncnc3c2c2c1CCC2` [Compound 664182]: the EC50 in experiment [1] (setting [2]) is 4.24 µM; at integrin CD11c/CD18, 3.78 µM.
Turning to `CSc1nc(N(CCO)CCO)c2sc3nc(-c4ccco4)c4c(c3c2n1)CCC4` [Compound 665142], the EC50 in experiment [1] (setting [2]) was 4.92 µM; on integrin CD11c/CD18 it was 2.63 µM.
In the case of `Cc1ccc(-c2nn3c(C)nnc3s2)cc1NC(=O)c1ccc(-c2cccc(Cl)c2)o1` [Compound 666410], the results for the EC50 (in experiment [1] (setting [4]); on integrin CD11c/CD18) were 6.22 µM and 2.45 µM, respectively.
In experiment [1] (setting [2]), `CCc1cc(=O)oc2cc(C)c3c(C)coc3c12` [Compound 707842] showed an EC50 of 15 µM. At integrin CD11c/CD18 (setting [3]), the “EC50 CD11c/CD18” value is listed as “Infinite”.
Take `Cc1cc(C)cc(OCC(=O)Nc2ccc(N3CCCC3)cc2)c1` [Compound 960705]: the EC50 in experiment [1] (setting [2]) was determined as 3.49 µM; at integrin CD11c/CD18, 2.28 µM.
The corresponding values for `Cc1ccc2sc(-c3ccc(NC(=O)c4cc(-n5cnnc5)ccc4Cl)cc3)nc2c1` [Compound 1017701] are 8.11 µM and 2.72 µM.
`O=C(Oc1ccc2c(=O)c(Oc3ccc4ccccc4c3)coc2c1)c1cncc(Br)c1` [Compound 1045434] yielded an EC50 in experiment [1] (setting [2]) of 9.84 µM. Moreover, the “EC50 CD11c/CD18” value at integrin CD11c/CD18 (setting [3]) was “Infinite”.
`COc1ccccc1NC(=O)c1sc2ncn(Cc3ccc(C)cc3)c(=O)c2c1C` [Compound 1078286]: the EC50 was 6.92 µM in experiment [1] (setting [2]) and 2.5 µM at integrin CD11c/CD18.
Regarding `Cc1ccc(-c2nc3ncccc3o2)cc1NC(=O)c1sc2ccccc2c1Cl` [Compound 1132508], the EC50 worked out at 4.44 µM in experiment [1] (setting [2]) and 5.39 µM on integrin CD11c/CD18.
As to `O=C(Nc1ccc(NC(=O)c2ccc(S(=O)(=O)c3ccccc3)cc2)cc1)c1ccccc1` [Compound 1144109], the EC50 in experiment [1] (setting [2]) was determined as 7.06 µM; at integrin CD11c/CD18, 3.06 µM.
The corresponding values for `COc1ccc2nc(SCC(=O)Nc3ccc4sc(C)nc4c3)c(C#N)cc2c1` [Compound 1164441] are 4 µM and 2.77 µM.
For `Cc1ccc(-n2nnnc2SCC(=O)Nc2ccc3c(c2)COC3=O)cc1C` [Compound 1227337] the same measures were 4.19 µM and 3.32 µM.
The corresponding values for `Cc1cc(OCC(=O)Nc2ccc(N3CCN(C(=O)c4ccco4)CC3)cc2)cc(C)c1Cl` [Compound 1255242] are 3.41 µM and 2.57 µM.
With `O=C(CCN1C(=O)c2ccccc2C1=O)Nc1ccc(-c2nc3ccccc3o2)cc1` [Compound 1262031], the EC50 came to 1.6 µM in experiment [1] (setting [2]) and 7.21 µM at integrin CD11c/CD18.
For the compound `O=C(Nc1ccc2oc(-c3ccccc3F)nc2c1)c1cncc(Br)c1` [Compound 1295289], the EC50 in experiment [1] (setting [2]) stood at 3.62 µM; at integrin CD11c/CD18, 2.67 µM.
For `COc1cc(/C=C2\SC(N)=NC2=O)ccc1OCC(=O)Nc1ccc(C)cc1` [Compound 1308620] the same measures were 3.3 µM and 6.27 µM.
The corresponding values for `CC(=O)Nc1ccc(-c2nnc(SCC(=O)n3c4c(c5ccccc53)CCCC4)n2C)cc1` [Compound 1310712] are 2.39 µM and 1.29 µM.
In the case of `O=C(Nc1ccc(N2CCN(c3ccc(O)cc3)CC2)cc1)Oc1ccccc1` [Compound 1317528], the EC50 was 3.62 µM in experiment [1] (setting [2]) and 2.14 µM at integrin CD11c/CD18.
In the case of `CC(=O)c1ccc(NC(=O)c2ccc3nc(-c4ccco4)c(-c4ccco4)nc3c2)cc1` [Compound 1331726], the EC50 in experiment [1] (setting [2]) is 2.46 µM; at integrin CD11c/CD18 it was 2.64 µM.
For the compound `Cc1ccc2nsnc2c1NC(=O)c1ccc(-c2cc(Cl)ccc2Cl)o1` [Compound 1334850], the EC50 in experiment [1] (setting [2]) was determined as 2.69 µM; on integrin CD11c/CD18, 1.38 µM.
The corresponding values for `Cc1c(N2C(=O)c3ccc4c5c(ccc(c35)C2=O)CC4)c(=O)n(-c2ccccc2)n1C` [Compound 1356461] are 4.02 µM and 2.27 µM.
For `CCOC(=O)c1c(-n2c(C)cc(C=C3C(=O)NC(=S)NC3=O)c2C)sc2c1CCCC2` [Compound 1494229], the EC50 in experiment [1] (setting [2]) was determined as 6.53 µM; in experiment [1] (setting [4]), 6.53 µM; on integrin CD11c/CD18 (Table 4, K562 CD11c/CD18 cells, adhesion to fibrinogen, dose-response, read-out: EC50 CD11c/CD18), 6.72 µM.
`Cc1ccc(-c2ccc(/C=C(\C#N)C(=O)Nc3cc(C)nn3-c3ccccc3)o2)cc1` [Compound 1554430]: the EC50 in experiment [1] (setting [2]) amounted to 4.68 µM; on integrin CD11c/CD18 it was 1.3 µM.
Consider `COc1ccc(/C=C2/SC(=O)N(CC(=O)Nc3cc(C)on3)C2=O)cc1OC` [Compound 1554642], for which the EC50 came out at 7.9 µM in experiment [1] (setting [2]) and 5.26 µM on integrin CD11c/CD18.
The corresponding values for `N=C1/C(=C\c2ccc(-c3cc(Cl)cc(Cl)c3)o2)C(=O)N=C2SC=C(c3ccccc3)N12` [Compound 1599902] are 5.71 µM and 2.23 µM.
Regarding `Cc1ccc(/C=c2\sc3nc(-c4ccccc4Br)nn3c2=O)o1` [Compound 1891182], the EC50 in experiment [1] (setting [2]) is 6.86 µM; on integrin CD11c/CD18, 5.27 µM.
On to `Cc1ccc(-n2c(N)c(C(=O)Nc3c(C)n(C)n(-c4ccccc4)c3=O)c3nc4ccccc4nc32)cc1` [Compound 1949560], for which the EC50 stood at 5.46 µM in experiment [1] (setting [2]) and 5.53 µM on integrin CD11c/CD18.
As to `CS(=O)(=O)c1ccc2c(c1)SC1=NC(=O)/C(=C/c3ccco3)C(=N)N12` [Compound 1951731], the values for the EC50 (in experiment [1] (setting [2]); at integrin CD11c/CD18) were 3.65 µM and 4.21 µM, respectively.
The corresponding values for `O=C(Nc1nnc(-c2ccccc2SCc2ccccc2)s1)Nc1ccccc1F` [Compound 1964957] are 6.47 µM and 10.6 µM.
Regarding `Cc1cc(C)cc(-n2c(N)c(C(=O)Nc3c(C)n(C)n(-c4ccccc4)c3=O)c3nc4ccccc4nc32)c1` [Compound 1967927], the values for the EC50 (in experiment [1] (setting [2]); at integrin CD11c/CD18) were 2.67 µM and 2.49 µM, respectively.
For `N=C1/C(=C\c2ccc(-c3cccc(Cl)c3)o2)C(=O)N=C2SC=C(c3ccccc3)N12` [Compound 1984877] the same measures were 3.07 µM and 2.16 µM.
Turning to `Cc1ccsc1/C=C/C1=Cc2c(sc(NC(=O)CSc3nnc(N)[nH]3)c2C#N)C(C)(C)C1` [Compound 2083967], the EC50 turned out to be 3.33 µM in experiment [1] (setting [2]) and 2.7 µM at integrin CD11c/CD18.
As to `CCOc1ccc(/C=c2\sc3nc(-c4ccco4)nn3c2=O)cc1OCC` [Compound 2144321], the EC50 in experiment [1] (setting [2]) stood at 6.49 µM; at integrin CD11c/CD18 it was 5.07 µM.
For `CCn1c(=NC(=O)c2ccc(N3C(=O)CCC3=O)cc2)sc2c(OC)ccc(OC)c21` [Compound 2150886] the same measures were 5.05 µM and 2.13 µM.
The corresponding values for `CCOC(=O)c1c(NC(=O)c2cc(-c3ccc(Cl)s3)nc3ccccc23)sc(C(N)=O)c1C` [Compound 2163411] are 6.56 µM and 1.77 µM.
In experiment [1] (setting [2]), `O=C(Cn1c2ccccc2c(=O)c2cc([N+](=O)[O-])ccc21)Nc1ccccc1Cl` [Compound 15944880] returned an EC50 of 10.1 µM.
On the same count and under the same terms, with `CC(C)c1nnc(NC(=O)c2c(O)c3cccc4c3n(c2=O)CCC4)s1` [Compound 54680928] the figure was 16.1 µM.

The values above are taken from US20180319865A1, “Identification of Novel Small Molecule Beta2 Integrin Agonists” (Rush University Medical Center, priority 2016, published 2018).
